Source: PMC7412250, “Novel Chrysin-De-Allyl PAC-1 Hybrid Analogues as Anticancer Compounds: Design, Synthesis, and Biological Evaluation” (Molecules, 2020)
Read-outs that look alike come from different tables or passages of the source.

Tests used:
MDA-MB-231 cells [1] = test system: MDA-MB-231 cells; set-up: method as in PMID 30774307; conditions: cited from earlier work; for IC50: MDA-MB-231, MTT, data taken from ref 29, read-out: IC50 (cell survival)
U-251 = assay: MTT cytotoxicity assay, U-251; assay type: cell-based; conditions: Homo sapiens, mean ± SEM of three independent experiments in triplicate, read-out: IC50 Brain Cancer U-251
Method: (§1) A panel of cancer cell lines, including breast (MDA-MB-231, BT20), brain (U251), and colon (HCT116), as well as a normal cell line (human mammary epithelial cells: HMECs), were grown as adherent monolayers in flasks with Dulbecco’s Modified Eagle Medium (DMEM), supplemented with 10% fetal bovine serum (FBS) and 1% penicillin and streptomycin in a humidified incubator with 5% CO2 at 37 °C.
(§2) The (3-(4,5-dimethylthiazol-2-yl)-2,5-diphenyltetrazolium bromide) (MTT) assay was used to determine the cytotoxicity of the 15 chrysin derivatives in the above-mentioned cell lines. Briefly, cells were harvested with 0.05% trypsin, 2.21 mM ethylenediaminetetraacetic acid (EDTA), 1× from Corning (Corning, NY, USA), and suspended at a final density of 5 × 10^3 cells/well. Cells were seeded (180 μL/well) into 96-well plates. Initially, four different concentrations of each compound were added to find the compounds with the greatest antiproliferative efficacy in the MDA-MB-231 cell line (0, 1, 10, and 100 μM). Subsequently, […] different concentrations […] of each compound were added to the remaining cell lines mentioned above. After 68 h of incubation, 20 μL of the MTT solution (4 mg/mL) were added to each well, and the plates were incubated for 4 h. This allowed viable cells to biotransform the yellow-colored MTT into dark-blue formazan crystals. Subsequently, the medium was discarded, and 150 μL of DMSO were added to each well to dissolve the formazan crystals. The absorbance was determined at 590 nm using a DTX 880 multimode detector (Beckman Coulter life sciences, IN, USA). The IC50 ± SD concentrations were calculated from three experiments performed in triplicate/duplicate. The IC50 values were calculated from the cell survival percentages obtained for each compound tested at different concentrations. Similarly, the cytotoxicity of the test compounds was compared to the normal cell line (HMEC).

MDA-MB-231 cells [2] = assay: MTT cytotoxicity assay, MDA-MB-231; assay type: cell-based, human; conditions: MDA-MB-231, MTT; for IC50: Homo sapiens, mean ± SD of two independent experiments in triplicate, read-out: IC50 (cell survival)
Method: The synthesized chrysin derivatives were evaluated for cytotoxic efficacy in the human breast cancer cell line, MDA-MB-231, using the 3-(4,5-dimethylthiazol-2yl)-2,5-diphenyltetrazolium bromide (MTT) colorimetric assay and doxorubicin was used as a reference anticancer drug.
as §1
as §2, with “The IC50 ± SD concentrations were calculated from three experiments performed in triplicate/duplicate.” left out

BT-20 = assay: MTT cytotoxicity assay, BT-20; assay type: cell-based; conditions: Homo sapiens, mean ± SEM of three independent experiments in triplicate, read-out: IC50 Breast Cancer BT-20
Method: as §1, §2

[3] = test system: HMEC (human mammary epithelial cells); assay: MTT cytotoxicity assay, normal cells HMEC; assay type: cell-based; conditions: mean ± SEM of three independent experiments in triplicate
Method: as §1, §2

HCT116 = assay: MTT cytotoxicity assay, HCT116; assay type: cell-based; conditions: Homo sapiens, HCT-116, mean ± SEM of three independent experiments in triplicate, read-out: IC50 Colon Cancer HCT116
Method: as §1, §2

SMILES: O=C(COc1cc(O)c2c(=O)cc(-c3ccccc3)oc2c1)N/N=C/c1ccc(O)cc1 [Compound 4e, (E,Z)-2-((5-Hydroxy-4-oxo-2-phenyl-4H-chromen-7-yl)oxy)-N’-(4-hydroxybenzylidene)acetohydrazide]
- IC50 (MDA-MB-231 cells [1]): 54.8 ± 5.7 µM

SMILES: O=C(COc1cc(O)c2c(=O)cc(-c3ccccc3)oc2c1)N/N=C/c1ccccc1O [Compound 4a, (E,Z)-2-((5-Hydroxy-4-oxo-2-phenyl-4H-chromen-7-yl)oxy)-N’-(2-hydroxybenzylidene)acetohydrazide]
- IC50 (U-251): 8.63 ± 4.86 µM
- IC50 (MDA-MB-231 cells [2]): 6.8 ± 2.76 µM
- IC50 (BT-20): 4.41 ± 0.99 µM
- IC50 [3]: 7.12 ± 4.55 µM
- IC50 (HCT116): 2.88 ± 0.09 µM

SMILES: O=C(COc1cc(O)c2c(=O)cc(-c3ccccc3)oc2c1)N/N=C/c1c(O)ccc2ccccc12 [Compound 4n, (E,Z)-2-((5-Hydroxy-4-oxo-2-phenyl-4H-chromen-7-yl)oxy)-N’-((2-hydroxynaphthalen-1-yl)methylene)acetohydrazide]
- cytotoxic efficacy (in words) (MDA-MB-231 cells [2]): inactive

SMILES: O=C(COc1cc(O)c2c(=O)cc(-c3ccccc3)oc2c1)N/N=C/c1cc([N+](=O)[O-])ccc1O [Compound 4o]
- IC50 (U-251): 11.3 ± 2.84 µM
- IC50 (MDA-MB-231 cells [2]): 7.9 ± 1.82 µM
- IC50 (BT-20): 7.25 ± 1.82 µM
- IC50 [3]: 7.17 ± 4.1 µM
- IC50 (HCT116): 3.85 ± 0.34 µM

SMILES: O=C(COc1cc(O)c2c(=O)cc(-c3ccccc3)oc2c1)N/N=C/c1cccnc1 [Compound 4l, (E,Z)-2-((5-Hydroxy-4-oxo-2-phenyl-4H-chromen-7-yl)oxy)-N’-(pyridin-3-ylmethylene)acetohydrazide]
- cytotoxic efficacy (in words) (MDA-MB-231 cells [2]): did not have significant cytotoxic efficacy

SMILES: COc1ccccc1/C=N/NC(=O)COc1cc(O)c2c(=O)cc(-c3ccccc3)oc2c1 [Compound 4c, (E,Z)-2-((5-Hydroxy-4-oxo-2-phenyl-4H-chromen-7-yl)oxy)-N’-(2-methoxybenzylidene)acetohydrazide]
- IC50 (MDA-MB-231 cells [2]): 23.3 ± 6.98 µM

SMILES: O=C(COc1cc(O)c2c(=O)cc(-c3ccccc3)oc2c1)N/N=C/c1c(O)cc(O)cc1O [Compound 4j, (E,Z)-2-((5-Hydroxy-4-oxo-2-phenyl-4H-chromen-7-yl)oxy)-N’-(2,4,6-trihydroxybenzylidene)acetohydrazide]
- cytotoxic efficacy (in words) (MDA-MB-231 cells [2]): totally inactive

SMILES: COc1cccc2c1C(=O)c1c(O)c3c(c(O)c1C2=O)C[C@@](O)(C(=O)CO)C[C@@H]3O[C@H]1C[C@H](N)[C@H](O)[C@H](C)O1 [Doxorubicin, reference compound]
- IC50 (MDA-MB-231 cells [2]): 0.2 ± 0.1 µM

SMILES: COc1ccc(/C=N/NC(=O)COc2cc(O)c3c(=O)cc(-c4ccccc4)oc3c2)cc1 [Compound 4f, (E,Z)-2-((5-Hydroxy-4-oxo-2-phenyl-4H-chromen-7-yl)oxy)-N’-(4-methoxybenzylidene)acetohydrazide]
- IC50 (MDA-MB-231 cells [1]): 11.9 ± 3.5 µM
- times more efficacious than 4e (MDA-MB-231 cells [1]; MDA-MB-231 cytotoxic efficacy relative to 4e): ~ 5 times

SMILES: O=C(COc1cc(O)c2c(=O)cc(-c3ccccc3)oc2c1)N/N=C/c1ccco1 [Compound 4k, (E,Z)-N’-(Furan-2-ylmethylene)-2-((5-hydroxy-4-oxo-2-phenyl-4H-chromen-7-yl)oxy)acetohydrazide]
- IC50 (MDA-MB-231 cells [2]): 66.7 ± 11.1 µM
- cytotoxic efficacy (in words) (MDA-MB-231 cells [2]): did not have significant cytotoxic efficacy

SMILES: O=C(COc1cc(O)c2c(=O)cc(-c3ccccc3)oc2c1)N/N=C/c1ccccn1 [Compound 4m, (E,Z)-2-((5-Hydroxy-4-oxo-2-phenyl-4H-chromen-7-yl)oxy)-N’-(pyridin-2-ylmethylene)acetohydrazide]
- cytotoxic efficacy (in words) (MDA-MB-231 cells [2]): did not have significant cytotoxic efficacy

SMILES: O=C(COc1cc(O)c2c(=O)cc(-c3ccccc3)oc2c1)N/N=C/c1ccccc1 [Compound 4b, (E,Z)-N’-Benzylidene-2-((5-hydroxy-4-oxo-2-phenyl-4H-chromen-7-yl)oxy)acetohydrazide]
- IC50 (MDA-MB-231 cells [2]): 9.4 ± 3.38 µM
